{"source": "patent US20160193240A1", "about": "“Ulmoside-A: Useful For Prevention Or Cure Of Metabolic Diseases” (COUNCIL OF SCIENTIFIC & INDUSTRIAL RESEARCH, priority 2013, published 2016)", "key": {"PGC-1α": {"system": "PGC-1α", "experiment": "PGC-1α acetylation status (immunoprecipitation, anti-acLys western) in C2C12 myotubes", "assay_type": "cell-based, mouse", "conditions": "10 nM, 6 hours", "experimental": "C. ULMA induces PGC-1α deacetylation. C2C12 myotubes plated in 10 cm dish were treated with vehicle (0.1% vol/vol DMSO) or 10 nM ULMA in DMSO for 6 h. The cell lysates were then incubated with 5 μg anti-PGC-1α antibody (Calbiochem) for 12 h at 4° C. on a rotating wheel set at 10 RPM. 20 μl of protein A and protein G sepharose beads (Sigma; 1:1) was then added to the solution and the incubation was continued for another 2 h. The tubes were then centrifuged (1000 RPM) for 1 min and the supernatant was discarded. The pellets were washed 7 times. The beads were boiled in 50 μl 2× lammeli buffer for 5 min and cooled immediately on ice and following quick spin, the supernatants were resolved by denaturing polyacrylamide gel electrophoresis and western blotted with anti-acetylated lysine (acLys) antibody. Data represent one of three independent experiments displaying identical pattern. […]"}, "wistar rats": {"system": "wistar rats", "experiment": "Dexamethasone induced loss of body weight and death in rats", "conditions": "for Final body weight (g) / Survival/group (%): 2 weeks", "experimental": "All animal experiments were conducted in accordance with current legislation on animal experiments [Institutional Animal Ethical Committee (IAEC)] at C.D.R.I. In all animal experiments, rats were individually housed at 21° C., in 12-h light:12-h dark cycles. All animals had access to normal chow diet and water ad libitum.\nFood intake was measured daily and the rats were weighed each week. The rats were fasted overnight (O/N) on day 14th and on day 15th oral glucose tolerance test was performed. Following oral glucose tolerance test (OGTT), rats were kept with food and water ad libitum for one day. On day 16th, rats were fasted again O/N and then euthanized. At autopsy, from 5 animals/group, tissues were collected and snap frozen in liquid nitrogen. Blood was collected from cardiac punctures. Plasma was separated from whole blood by centrifugation at 3000 rpm for 20 min immediately after collection of blood and stored at −80° C. until further analysis. […] (quadriceps) skeletal muscles were processed for RNA and protein extraction, followed by quantitative real-time PCR (QRT-PCR) analysis. Two animals from each group were used for photography post autopsy."}, "rats": {"system": "rats", "conditions": "cited from earlier work"}}, "note": "Marks after values point to notes of the source that are not given here."}
{"smiles": "O=C1c2c(cc(O)c([C@@H]3O[C@H](CO)[C@@H](O)[C@H](O)[C@H]3O)c2O)O[C@@H](c2ccc(O)c(O)c2)[C@@H]1O", "note": "[ULMA, (2S,3S)-(+)-3′,4′,5,7-tetrahydroxydihydroflavonol-6-C-β-D-glucopyranoside]", "values": [{"measurement": "level of acetylated PGC-1α", "setting": "PGC-1α", "result": "decreased"}, {"measurement": "Final body weight (g)", "setting": "wistar rats; Dex + ULMA-1 mg", "result": "176.5 ± 5.9^c g"}, {"measurement": "Survival/group (%)", "setting": "wistar rats; Dex + ULMA-1 mg", "result": 73.3, "unit": "%"}, {"measurement": "Final body weight (g)", "setting": "wistar rats; Dex + ULMA-5 mg", "result": "192.7 ± 3.8^b,c g"}, {"measurement": "Survival/group (%)", "setting": "wistar rats; Dex + ULMA-5 mg", "result": 100, "unit": "%"}, {"measurement": "change in body weight in control animals", "setting": "wistar rats; rat, in vivo", "result": "did not cause any significant change"}, {"measurement": "effect on ovariectomy-induced osteoporosis", "setting": "rats", "result": "mitigated ovariectomy-induced osteoporosis"}]}
